Test results published in the supplement of paper PMC5662764.
± gives the standard deviation of the averaged measurements.

What was measured:
Assay in all cases: normalised growth rate inhibition (GR value) relative to DMSO control (GR (1 = untreated growth, 0 = cytostasis, <0 = cytotoxic)); higher = less growth inhibition
Conditions in all cases: 72 h
MDAMB231 = system: MDAMB231
Description: (§1)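 Breast cancer cell lines (BT-20, Hs 578T, MCF 10A, MCF7, MDA-MB-231, SK-BR-3) were plated in 384-well plates and treated 24 h later with drugs at six concentrations (0.04-10 µM). Viable cells were counted by Hoechst/dead-cell-stain imaging at 0 and 72 h. Counts were normalised to DMSO controls on the same plate to give the relative cell count and the growth-rate inhibition (GR) value; technical plate triplicates were averaged for each biological replicate.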

BT20 = system: BT20
Description: as §1

HS578T = system: HS578T
Description: as §1

SKBR3 = system: SKBR3
Description: as §1

MCF10A = system: MCF10A
Description: as §1

MCF7 = system: MCF7
Description: as §1

| SMILES | normalised growth rate inhibition (MDAMB231; 0.04 µM) | normalised growth rate inhibition (MDAMB231; 0.12 µM) | normalised growth rate inhibition (MDAMB231; 0.37 µM) | normalised growth rate inhibition (MDAMB231; 1.11 µM) | normalised growth rate inhibition (MDAMB231; 3.33 µM) | normalised growth rate inhibition (MDAMB231; 10 µM) | normalised growth rate inhibition (BT20; 0.04 µM) | normalised growth rate inhibition (BT20; 0.12 µM) | normalised growth rate inhibition (BT20; 0.37 µM) | normalised growth rate inhibition (BT20; 1.11 µM) | normalised growth rate inhibition (BT20; 3.33 µM) | normalised growth rate inhibition (BT20; 10 µM) | normalised growth rate inhibition (HS578T; 0.04 µM) | normalised growth rate inhibition (HS578T; 0.12 µM) | normalised growth rate inhibition (HS578T; 0.37 µM) | normalised growth rate inhibition (HS578T; 1.11 µM) | normalised growth rate inhibition (HS578T; 3.33 µM) | normalised growth rate inhibition (HS578T; 10 µM) | normalised growth rate inhibition (SKBR3; 0.04 µM) | normalised growth rate inhibition (SKBR3; 0.12 µM) | normalised growth rate inhibition (SKBR3; 0.37 µM) | normalised growth rate inhibition (SKBR3; 1.11 µM) | normalised growth rate inhibition (SKBR3; 3.33 µM) | normalised growth rate inhibition (SKBR3; 10 µM) | normalised growth rate inhibition (MCF10A; 0.04 µM) | normalised growth rate inhibition (MCF10A; 0.12 µM) | normalised growth rate inhibition (MCF10A; 0.37 µM) | normalised growth rate inhibition (MCF10A; 1.11 µM) | normalised growth rate inhibition (MCF10A; 3.33 µM) | normalised growth rate inhibition (MCF10A; 10 µM) | normalised growth rate inhibition (MCF7; 0.04 µM) | normalised growth rate inhibition (MCF7; 0.12 µM) | normalised growth rate inhibition (MCF7; 0.37 µM) | normalised growth rate inhibition (MCF7; 1.11 µM) | normalised growth rate inhibition (MCF7; 3.33 µM) | normalised growth rate inhibition (MCF7; 10 µM) |
| --- | --- | --- | --- | --- | --- | --- | --- | --- | --- | --- | --- | --- | --- | --- | --- | --- | --- | --- | --- | --- | --- | --- | --- | --- | --- | --- | --- | --- | --- | --- | --- | --- | --- | --- | --- | --- |
| Cc1cc2c(F)c(Oc3ncnn4cc(OC[C@@H](C)O)c(C)c34)ccc2[nH]1 [brivanib] | 0.902 ± 0.11 | 0.892 ± 0.081 | 0.91 ± 0.062 | 0.923 ± 0.062 | 0.895 ± 0.1 | 0.667 ± 0.094 | 0.949 ± 0.039 | 0.935 ± 0.016 | 0.956 ± 0.012 | 0.928 ± 0.024 | 0.925 ± 0.047 | 0.798 ± 0.03 | 0.963 ± 0.016 | 0.952 ± 0.02 | 0.963 ± 0.011 | 0.9364 ± 0.0061 | 0.9281 ± 0.0053 | 0.797 ± 0.055 | 0.811 ± 0.14 | 0.798 ± 0.17 | 0.807 ± 0.15 | 0.861 ± 0.11 | 0.85 ± 0.11 | 0.822 ± 0.1 | 0.992 ± 0.017 | 0.977 ± 0.023 | 0.969 ± 0.016 | 0.883 ± 0.043 | 0.74 ± 0.071 | 0.316 ± 0.043 | 0.902 ± 0.093 | 0.864 ± 0.064 | 0.898 ± 0.079 | 0.908 ± 0.062 | 0.949 ± 0.029 | 0.86 ± 0.035 |
| CCC(=O)N1CCN(c2ccc(-n3c(=O)ccc4cnc5ccc(-c6cnc7ccccc7c6)cc5c43)cc2C(F)(F)F)CC1 [torin-1] | 0.464 ± 0.038 | 0.339 ± 0.053 | 0.243 ± 0.073 | 0.178 ± 0.051 | 0.116 ± 0.055 | -0.0316 ± 0.1 | 0.271 ± 0.076 | 0.11 ± 0.081 | 0.0128 ± 0.054 | -0.0682 ± 0.033 | -0.152 ± 0.025 | -0.251 ± 0.026 | 0.267 ± 0.069 | 0.213 ± 0.075 | 0.163 ± 0.086 | 0.0994 ± 0.083 | 0.0438 ± 0.084 | -0.093 ± 0.14 | 0.0209 ± 0.19 | -0.0144 ± 0.18 | -0.0642 ± 0.15 | -0.11 ± 0.18 | -0.161 ± 0.17 | -0.218 ± 0.19 | 0.529 ± 0.13 | 0.304 ± 0.042 | 0.198 ± 0.017 | 0.161 ± 0.026 | 0.156 ± 0.006 | 0.0917 ± 0.027 | 0.166 ± 0.044 | 0.119 ± 0.024 | 0.082 ± 0.038 | 0.0141 ± 0.045 | -0.0224 ± 0.046 | -0.068 ± 0.033 |
| Cn1c(=O)n(-c2ccc(C(C)(C)C#N)cc2)c2c3cc(-c4cnc5ccccc5c4)ccc3ncc21 [NVP-BEZ235] | 0.397 ± 0.2 | 0.301 ± 0.19 | 0.196 ± 0.2 | 0.216 ± 0.15 | 0.223 ± 0.11 | 0.266 ± 0.095 | 0.254 ± 0.1 | 0.13 ± 0.12 | 0.0662 ± 0.092 | 0.061 ± 0.042 | 0.055 ± 0.039 | 0.103 ± 0.053 | 0.261 ± 0.067 | 0.197 ± 0.078 | 0.109 ± 0.087 | 0.132 ± 0.11 | 0.115 ± 0.052 | 0.128 ± 0.044 | 0.0857 ± 0.065 | 0.0449 ± 0.11 | -0.0406 ± 0.12 | -0.04 ± 0.11 | -0.035 ± 0.12 | 0.0305 ± 0.11 | 0.393 ± 0.24 | 0.269 ± 0.12 | 0.171 ± 0.038 | 0.164 ± 0.048 | 0.168 ± 0.052 | 0.202 ± 0.03 | 0.166 ± 0.15 | 0.122 ± 0.16 | 0.0651 ± 0.16 | 0.0257 ± 0.12 | 0.034 ± 0.1 | 0.068 ± 0.071 |
| c1ccc2c(-c3cnn4cc(-c5ccc(N6CCNCC6)cc5)cnc34)ccnc2c1 | 0.996 ± 0.073 | 0.938 ± 0.084 | 0.925 ± 0.072 | 0.727 ± 0.056 | 0.0105 ± 0.45 | -0.355 ± 0.038 | 0.994 ± 0.036 | 0.905 ± 0.039 | 0.915 ± 0.093 | 0.645 ± 0.21 | -0.08 ± 0.34 | -0.507 ± 0.082 | 0.952 ± 0.025 | 0.911 ± 0.011 | 0.897 ± 0.027 | 0.862 ± 0.072 | 0.244 ± 0.58 | -0.361 ± 0.083 | 1.09 ± 0.11 | 1.04 ± 0.11 | 1.09 ± 0.056 | 0.987 ± 0.048 | -0.0902 ± 0.23 | -0.515 ± 0.11 | 0.999 ± 0.014 | 0.9817 ± 0.0032 | 0.9705 ± 0.0076 | 0.953 ± 0.032 | 0.661 ± 0.34 | -0.396 ± 0.11 | 1.08 ± 0.047 | 1 ± 0.075 | 1.01 ± 0.072 | 0.868 ± 0.044 | 0.258 ± 0.34 | -0.368 ± 0.019 |
| COc1cc2ncnc(-n3nc(-c4ccccn4)nc3N)c2cc1OC | 1.05 ± 0.057 | 1.02 ± 0.058 | 0.785 ± 0.4 | 0.938 ± 0.041 | 0.903 ± 0.1 | 0.534 ± 0.25 | 1.07 ± 0.0067 | 1.03 ± 0.032 | 1.01 ± 0.036 | 1.02 ± 0.014 | 0.954 ± 0.047 | 0.588 ± 0.22 | 1.035 ± 0.0072 | 1.04 ± 0.021 | 1.05 ± 0.033 | 1.02 ± 0.053 | 0.978 ± 0.083 | 0.686 ± 0.15 | 1.16 ± 0.032 | 1.05 ± 0.033 | 1.04 ± 0.069 | 0.95 ± 0.13 | 0.871 ± 0.17 | 0.479 ± 0.44 | 1.018 ± 0.01 | 1.01 ± 0.014 | 1.008 ± 0.0099 | 0.994 ± 0.011 | 0.972 ± 0.018 | 0.729 ± 0.26 | 1.09 ± 0.051 | 1.04 ± 0.045 | 1.05 ± 0.083 | 1.01 ± 0.1 | 0.918 ± 0.14 | 0.499 ± 0.41 |
| CN1CCN(c2ccc3nc(-c4c(N)c5c(F)cccc5[nH]c4=O)[nH]c3c2)CC1 [dovitinib] | 0.903 ± 0.11 | 0.817 ± 0.14 | 0.534 ± 0.1 | 0.451 ± 0.12 | 0.343 ± 0.068 | 0.23 ± 0.099 | 0.83 ± 0.047 | 0.685 ± 0.11 | 0.394 ± 0.13 | 0.304 ± 0.072 | 0.219 ± 0.034 | 0.156 ± 0.12 | 0.791 ± 0.047 | 0.562 ± 0.035 | 0.3 ± 0.083 | 0.271 ± 0.097 | 0.283 ± 0.079 | 0.254 ± 0.16 | 0.711 ± 0.12 | 0.659 ± 0.066 | 0.497 ± 0.062 | 0.474 ± 0.081 | 0.275 ± 0.04 | 0.142 ± 0.045 | 0.962 ± 0.032 | 0.893 ± 0.046 | 0.599 ± 0.098 | 0.368 ± 0.18 | 0.146 ± 0.085 | 0.0253 ± 0.033 | 0.898 ± 0.047 | 0.862 ± 0.079 | 0.678 ± 0.14 | 0.554 ± 0.19 | 0.379 ± 0.17 | 0.304 ± 0.1 |
| NC1(c2ccc(-c3nc4ccn5c(=O)[nH]nc5c4cc3-c3ccccc3)cc2)CCC1 [MK-2206] | 0.968 ± 0.039 | 0.904 ± 0.039 | 0.821 ± 0.05 | 0.806 ± 0.061 | 0.757 ± 0.051 | 0.391 ± 0.35 | 0.974 ± 0.087 | 0.902 ± 0.12 | 0.678 ± 0.13 | 0.583 ± 0.17 | 0.453 ± 0.2 | 0.08 ± 0.29 | 0.8934 ± 0.0036 | 0.803 ± 0.035 | 0.577 ± 0.21 | 0.665 ± 0.064 | 0.638 ± 0.053 | 0.458 ± 0.29 | 0.761 ± 0.12 | 0.603 ± 0.084 | 0.484 ± 0.06 | 0.429 ± 0.048 | 0.283 ± 0.059 | -0.0652 ± 0.015 | 0.99 ± 0.038 | 0.972 ± 0.036 | 0.705 ± 0.22 | 0.892 ± 0.067 | 0.833 ± 0.082 | 0.429 ± 0.09 | 0.616 ± 0.12 | 0.502 ± 0.086 | 0.278 ± 0.096 | 0.291 ± 0.12 | 0.176 ± 0.093 | -0.104 ± 0.14 |
